Test results: US9096548B2, “Pyrazine amide compounds” (Boehringer Ingelheim International GmbH, priority 2013, dated 2015)
Like-named read-outs stand apart in the source and are kept apart here.

Biological target: T1, ENaC (Epithelial Sodium Channel) (Mus musculus, UniProt Q61180+Q9WU38+Q9WU39)
T1 construct: Mouse kidney M−1 cells were cultivated in DMEM; endogenous in cells; host or cells: Mouse kidney M-1 cells, cultivated with dexamethasone on transwell filters
T1 sequence (Q61180 1-699): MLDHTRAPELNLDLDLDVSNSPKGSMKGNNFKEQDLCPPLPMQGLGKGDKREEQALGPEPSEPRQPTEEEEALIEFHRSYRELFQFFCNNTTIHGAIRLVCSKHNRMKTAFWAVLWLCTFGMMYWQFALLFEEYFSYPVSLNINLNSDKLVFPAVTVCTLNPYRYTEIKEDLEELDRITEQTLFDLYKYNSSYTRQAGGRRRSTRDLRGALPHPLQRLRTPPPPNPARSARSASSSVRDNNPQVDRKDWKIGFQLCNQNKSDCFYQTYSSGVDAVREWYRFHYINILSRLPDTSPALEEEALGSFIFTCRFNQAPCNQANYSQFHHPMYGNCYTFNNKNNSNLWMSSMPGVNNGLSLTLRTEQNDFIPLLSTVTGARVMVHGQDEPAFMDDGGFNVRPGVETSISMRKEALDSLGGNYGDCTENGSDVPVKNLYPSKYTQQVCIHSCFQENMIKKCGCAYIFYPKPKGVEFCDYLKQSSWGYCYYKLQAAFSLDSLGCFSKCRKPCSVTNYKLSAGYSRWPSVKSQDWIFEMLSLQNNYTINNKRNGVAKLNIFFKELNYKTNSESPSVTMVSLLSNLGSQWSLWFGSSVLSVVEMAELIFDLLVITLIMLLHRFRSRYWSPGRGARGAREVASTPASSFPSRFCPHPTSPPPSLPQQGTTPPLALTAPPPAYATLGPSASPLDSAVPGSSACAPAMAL
T1 sequence (Q9WU38 1-638): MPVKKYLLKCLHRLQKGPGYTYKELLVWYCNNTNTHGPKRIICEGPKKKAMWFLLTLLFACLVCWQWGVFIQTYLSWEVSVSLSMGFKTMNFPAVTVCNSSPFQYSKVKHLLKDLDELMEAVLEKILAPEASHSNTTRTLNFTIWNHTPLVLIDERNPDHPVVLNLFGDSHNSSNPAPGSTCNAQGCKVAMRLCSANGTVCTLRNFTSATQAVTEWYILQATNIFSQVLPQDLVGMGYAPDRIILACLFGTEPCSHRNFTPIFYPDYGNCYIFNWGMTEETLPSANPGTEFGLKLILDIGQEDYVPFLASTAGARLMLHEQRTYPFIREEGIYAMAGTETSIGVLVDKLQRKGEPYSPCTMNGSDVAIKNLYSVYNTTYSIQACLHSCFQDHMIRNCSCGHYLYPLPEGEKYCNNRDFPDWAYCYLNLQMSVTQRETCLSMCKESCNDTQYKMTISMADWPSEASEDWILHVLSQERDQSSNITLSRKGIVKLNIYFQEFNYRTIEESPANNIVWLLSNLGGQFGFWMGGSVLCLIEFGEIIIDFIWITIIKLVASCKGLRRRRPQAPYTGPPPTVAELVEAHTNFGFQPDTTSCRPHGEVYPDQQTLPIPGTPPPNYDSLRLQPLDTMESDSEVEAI
T1 sequence (Q9WU39 1-655): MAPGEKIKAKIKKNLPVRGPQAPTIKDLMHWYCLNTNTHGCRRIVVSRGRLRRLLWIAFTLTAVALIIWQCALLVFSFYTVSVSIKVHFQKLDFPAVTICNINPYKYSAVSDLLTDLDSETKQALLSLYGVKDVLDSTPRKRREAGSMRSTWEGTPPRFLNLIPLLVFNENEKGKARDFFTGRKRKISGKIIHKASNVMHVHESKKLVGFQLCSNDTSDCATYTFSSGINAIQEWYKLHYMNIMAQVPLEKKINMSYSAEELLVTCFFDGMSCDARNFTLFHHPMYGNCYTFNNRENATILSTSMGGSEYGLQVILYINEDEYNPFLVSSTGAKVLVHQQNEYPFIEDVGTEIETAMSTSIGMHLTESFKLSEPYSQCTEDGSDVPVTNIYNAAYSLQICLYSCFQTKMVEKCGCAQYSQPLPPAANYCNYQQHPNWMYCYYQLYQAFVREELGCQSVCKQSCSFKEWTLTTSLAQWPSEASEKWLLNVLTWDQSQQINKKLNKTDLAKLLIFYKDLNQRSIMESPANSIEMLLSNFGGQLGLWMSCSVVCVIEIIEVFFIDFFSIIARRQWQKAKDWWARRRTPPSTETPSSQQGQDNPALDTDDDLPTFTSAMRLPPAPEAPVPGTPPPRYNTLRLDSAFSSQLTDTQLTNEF
Assay: Ussing Chamber assay (short circuit current, amiloride sensitive I_SC)
Assay type: cell-based
Conditions: Ussing chamber, mouse kidney M-1 cells, short circuit current, read-out: IC50
How it was run: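 Mouse kidney M-1 cells grown 10–12 days on filters with 5 μM dexamethasone, measured in Caco-2 transport buffer at 37° C under voltage clamp. Compound applied apically at 3 μM or 1-3-10 μM; 3 μM amiloride added at end. Short circuit current inhibition given as percent of amiloride effect or IC50.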

[1] = value printed in the example text with μM

IC50 (unit inferred) | IC50 [1] | SMILES
0.15 µM | – | CCOC(=O)C[N+]1(CCCc2ccc(OC)cc2)CCCC(NC(=O)c2nc(Cl)c(N)nc2N)C1 (stereo not shown) [Example 12, 3-[(3,5-Diamino-6-chloro-pyrazine-2-carbonyl)-amino]-1-ethoxycarbonylmethyl-1-[3-(4-methoxy-phenyl)-propyl]-piperidinium chloride]
– | 0.21 µM | COc1ccc(CCC[N+]2(CC(=O)OC3CCCCC3)CCCC(NC(=O)c3nc(Cl)c(N)nc3N)C2)cc1 (stereo not shown) [Example 12.1, 1-Cyclohexyloxycarbonylmethyl-3-[(3,5-diamino-6-chloro-pyrazine-2-carbonyl)-amino]-1-[3-(4-methoxy-phenyl)-propyl]-piperidinium chloride]
– | > 1 µM | COc1ccc(CCC[N+]2(CC(=O)O)CCCC(NC(=O)c3nc(Cl)c(N)nc3N)C2)cc1 (stereo not shown) [Example 13, 1-Carboxymethyl-3-[(3,5-diamino-6-chloro-pyrazine-2-carbonyl)-amino]-1-[3-(4-methoxy-phenyl)propyl]-piperidinium chloride]
– | 0.137 µM | COC(=O)C[N+]1(CCCc2ccc(OC)cc2)CCCC(NC(=O)c2nc(Cl)c(N)nc2N)C1 (stereo not shown) [Example 14, 3-[(3,5-Diamino-6-chloro-pyrazine-2-carbonyl)-amino]-1-methoxycarbonylmethyl-1-[3-(4-methoxy-phenyl)-propyl]-piperidinium chloride]
